Data: PMC7278358, “Kinetic parameters of human aspartate/asparagine–β-hydroxylase suggest that it has a possible function in oxygen sensing” (The Journal of Biological Chemistry, 2020)
Where “and” joins values, the source holds several entries; their conditions need not be identical. Equal entries are not always repeated. Where two headings read alike, the source gives them in different places.

How the values were obtained:
[1] = biological target: T1, human His6–AspH315–758 (Homo sapiens, UniProt Q12797); assay: AspH O2 dependence (variable O2 partial pressures, SPE-MS); format: biochemical; conditions: n = 4
T1 construct: a pET-28a(+) vector encoding for N-terminal His6-tagged AspH315–758 (His6–AspH315–758) was transformed into Escherichia coli BL21 (DE3) cells; made in house; host or cells: Escherichia coli BL21 (DE3)
T1 sequence (Q12797 315-758): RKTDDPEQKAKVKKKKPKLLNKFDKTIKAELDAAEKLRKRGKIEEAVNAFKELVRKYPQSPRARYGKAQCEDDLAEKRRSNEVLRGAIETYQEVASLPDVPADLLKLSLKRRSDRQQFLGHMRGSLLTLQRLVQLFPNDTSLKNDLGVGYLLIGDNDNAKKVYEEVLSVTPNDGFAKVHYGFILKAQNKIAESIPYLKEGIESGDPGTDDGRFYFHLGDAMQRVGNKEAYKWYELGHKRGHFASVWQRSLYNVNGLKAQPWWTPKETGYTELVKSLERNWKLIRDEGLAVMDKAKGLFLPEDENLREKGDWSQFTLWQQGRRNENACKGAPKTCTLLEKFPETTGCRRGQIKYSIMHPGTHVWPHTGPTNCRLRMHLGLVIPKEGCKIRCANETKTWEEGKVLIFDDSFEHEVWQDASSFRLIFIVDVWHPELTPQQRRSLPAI
Description: For determining vmax^app and Km^app of AspH for O2, 2.2 μM hFX–CP101–119 (65 μl) in 50 mM HEPES (pH 7.5) were exposed in a gas-tight glass vial to variable O2 concentrations (in nitrogen; Fig. S7) using a mass flow controller ([32]). After equilibrating the atmosphere, co-factor and co-substrates were added by syringe (1.5 μl of 4.7 mM LAA and 0.99 mM 2OG in MQ-grade water and 1.5 μl of 0.99 mM FAS in MQ-grade water) followed by 2.0 μl of 3.5 μM His6–AspH315–758 in 50 mM HEPES (pH 7.5) at 20 °C. The enzyme reaction was stopped after the indicated reaction time by the addition of 15% (v/v) aqueous formic acid (4 μl) and analyzed by SPE-MS using the configurations given above; the experiments were performed in independent quadruplicates. The data were analyzed as described, and the slopes of the initial reaction rates (Fig. S7) were fitted to a Michaelis–Menten plot using nonlinear regression (GraphPad Prism 5).

[2] = tested on: KDM4C; conditions: read-out: Km app(O2); cited from earlier work
Text: (§1) At higher partial pressures of O2, the standard deviation among independent quadruplicates increased slightly because of efficient peptide hydroxylation requiring short reaction times; however, maximum velocities (vmax^app) were still similar within experimental error, indicating good data quality and reproducibility (Fig. S7). The AspH Km^app for O2 is high compared with the values reported for most oth ...

[3] = tested on: PHD2; conditions: same experimental setup, cited from earlier work; for Km: read-out: Km app for O2
Text: as §1

[4] = tested on: FIH; conditions: peptide substrate HIF-1α CAD35mer, same experimental setup, cited from earlier work
Text: as §1

[5] = tested on: KDM4A; conditions: cited from earlier work
Text: as §1

[6] = tested on: KDM4E; conditions: read-out: Km app(O2); cited from earlier work
Text: as §1

[7] = tested on: KDM6A; conditions: read-out: Km app(O2); cited from earlier work
Text: as §1

[8] = tested on: human phytanoyl-CoA hydroxylase; conditions: read-out: Km app(O2); cited from earlier work
Text: as §1

[9] = tested on: collagen prolyl 4-hydroxylases; conditions: read-out: Km app(O2); cited from earlier work
Text: as §1

[10] = O2 varied, hFX–CP101–119 substrate

O=O [O2]
Km app of AspH for O2 [%] ([1]; O2 in nitrogen, 100 μM LAA, 20 μM 2OG, 20 μM FAS, 2.0 μM hFX-CP101-119, 0.1 μM His6-AspH315-758, pH 7.5, 20 °C): 47.2 ± 8.1 % O2
vmax app ([1]; O2 varied (in nitrogen), 100 μM LAA, 20 μM 2OG, 20 μM FAS, 2.0 μM hFX–CP101–119, 0.1 μM His6–AspH315–758, 50 mM HEPES pH 7.5, 20 °C): 0.0207 ± 0.0018 µM/s
Km ([1]; O2 varied (in nitrogen), 100 μM LAA, 20 μM 2OG, 20 μM FAS, 2.0 μM hFX–CP101–119, 0.1 μM His6–AspH315–758, 50 mM HEPES pH 7.5, 20 °C, O2 % converted by y[μM] = 9.026·x[%], read-out: Km app for O2): ~426 µM and 426 µM
kcat [1, 10]: 0.23 ± 0.04 s⁻¹
kcat/Km [1, 10]: 540 ± 130 M⁻¹ s⁻¹
Km [2]: 158 ± 13 µM
kcat ([3]; peptide substrate HIF-1α CODD): 0.06 ± 0.01 s⁻¹
Km ([3]; peptide substrate HIF-1α CODD): 460 ± 30 µM
kcat ([3]; peptide substrate HIF-1α NODD): 0.028 ± 0.001 s⁻¹
Km ([3]; peptide substrate HIF-1α NODD): > 450 µM
kcat [4]: 0.56 ± 0.04 s⁻¹
Km ([4]; read-out: Km app for O2): ~110 µM and 110 µM
Km ([5]; peptide substrate H3_1–15K9me3, same experimental setup, read-out: Km app for O2): ~173 µM and 173 µM
Km ([5]; read-out: Km app(O2)): 57 ± 10 µM
Km [6]: 197 ± 16 µM
Km [7]: 180 ± 40 µM
Km [8]: 93 ± 43 µM
Km [9]: 40 µM
